Several values for one entry are separate records, joined by “and”; a condition that tells them apart may be missing. Equal values may be shown once. Entries after “also recorded” stand apart in the source; their conditions may differ.
Key:
[1] = test system: angiotensin II receptor 1 (AT-1); test: Escalating intravenous dose: blood pressure response of anaesthetised cats after angiotensin II (Example 2); format: in vivo
Method: Four clinically healthy adult male and female domestic short hair cats (HsdCpb: CADS) with a body weight range of 2.5-3.5 kg were used in this study. The animals were anaesthetised with sodium pentobarbital and anaesthesia was sustained by continuous infusion of diluted anaesthetic. A catheter was inserted into a carotid artery and connected to a pressure transducer for registration of the arterial pressure. […] The systolic and diastolic blood pressure [mmHg] in the carotid artery were recorded and analysed at discrete intervals as described below.
At first, the diastolic blood pressure was registered 6 times every 5 minutes. The mean of these 6 measurements were set as the baseline blood pressure. Then two bolus injections of A2 were administered at a dose of 0.1 μg/kg in an interval of 10 min. The maximum increase in diastolic blood pressure obtained from the second A2-bolus relative to the baseline blood pressure was taken as the control angiotensin II-blood pressure response (i.e. reference value).
Thirty minutes later the diastolic blood pressure was recorded, immediately followed by bolus injection of A2 at a dose of 0.1 μg/kg and the maximum increase in diastolic blood pressure was obtained. This procedure was to be repeated accordingly until the intended endpoint of the experiment (i.e. an A2-pressure response ≤10% of the control A2-pressure response corresponding to ≥90% inhibition) was reached. […] At the end of the experiment, the anaesthetised animals were euthanized with an overdose of sodium pentobarbital.

[2] = Pharmacokinetics and absolute bioavailability in plasma after single oral or intravenous administration (Example 1); details: for AUC(0-inf) / half-life / t max / V/f or V / t ½ / AUC 0 → ∞: single dose 1 mg/kg, mean; for half-life: t ½
Method: Four clinically healthy male and female domestic short hair cats (HsdCpb: CADS) with a body weight range of 2.6-4.2 kg were used in this study. The animals were randomly allocated to 2 groups, 2 animals per group.
Blood samples were drawn at 0 h (i.e. prior to treatment), 5 (after i. v. injection only), 15, 30 and 60 min as well as 2, 4, 8, 24, 72 and 96 h after each treatment. Clinical observations were also conducted at these time points. Plasma samples were sent to the analytical laboratory and analysed there using a validated method. The plasma levels measured in each animal were subjected to various pharmacokinetic calculations.

[3] = human patients, 160 mg daily; cited from earlier work
[4] = test system: angiotensin II receptor 1 (AT-1); test: Angiotensin II induced increase in diastolic blood pressure in laboratory cats after oral dosing; format: in vivo; details: approximately 24 hours after the last oral dosing, target dose vs Placebo
[5] = Safety after repeated oral administration over four weeks (Example 3); format: in vivo, cats
Method: The animals were allocated to 3 groups, 4 animals per group. […] The bottles with the test/control article looked identical with the exception of the animal no. in order to achieve blinding.
Blood samples for haematology and clinical chemistry were collected from the animals on days-1 (i.e. prior to the first treatment) and again on days 3, 7, 14, 28. Body weights were measured weekly and electrocardiography recording were made on days-1, 14, 21 and 28. A detailed physical examination including determination of rectal temperature and respiratory rate was carried out on days-1, 7, 14, 22 and 28. Systolic blood pressure (once daily) and heart rate (twice daily) were determined five days per week beginning prior to treatment until necropsy. The palatability of the administered article was assessed at various time points throughout treatment using a scoring system. On day 28 of the study, all animals were subjected to necropsy and stomach and kidneys were examined histopathologically. Relevant parameters were analysed using appropriate statistical procedures.

[6] = both, domestic short hair (HsdCpb: CADS), plasma, po, 1 mg/kg
[7] = oral once daily days 0 to 27, 1 and 3 mg/kg

CCCc1nc2c(C)cc(-c3nc4ccccc4n3C)cc2n1Cc1ccc(-c2ccccc2C(=O)O)cc1 [telmisartan, 4′-[2-n-propyl-4-methyl-6-(1-methylbenzimidazol-2-yl)-benzimidazol-1-ylmethyl]-biphenyl-2-carboxylic acid]
effect of further dose escalation ([1]; all 4 animals): did not produce markedly higher effects; also recorded: did not produce an appropriate dose response relationship
maximal inhibition of the blood pressure increase relative to the control angiotensin II-blood pressure response ([1]; animal no. 101, reached at cumulative i.v. dose of 0.05 mg/kg): 50%
inhibition of the angiotensin II diastolic blood pressure response ([1]; animal no. 102, after the 1st i.v. dose of 0.04 mg/kg): 73%
inhibition of the angiotensin II diastolic blood pressure response ([1]; animal no. 151, cumulative i.v. dose of 0.04 mg/kg): 73%
inhibition of the angiotensin II diastolic blood pressure response ([1]; animal no. 152, after the 1st i.v. dose of 0.02 mg/kg): 73%
maximal inhibition of the blood pressure increase relative to the control angiotensin II-blood pressure response ([1]; animal nos. 102, 151, 152, final cumulative i.v. dose 0.34-0.4 mg/kg): 80-95%
inhibition of the angiotensin II diastolic blood pressure response ([1]; cumulative i.v. dose of 0.04 mg/kg, 3 of 4 animals): 73%
inhibition of the blood pressure response ([1]; doses of less than 0.05 mg per kg body weight, majority of the tested cats): about 75%
effect on diastolic blood pressure increase after angiotensin II ([1]; escalating intravenous doses, anaesthetised cats): led to an inhibition of the diastolic blood pressure increase
endpoint of a 90% inhibition of the A2-pressure response ([1]; several consecutive escalating i.v. doses): could not be reached in 3 of 4 animals
plasma concentrations at 24 h ([2]; 24 h after both routes, orally and intravenously): No quantifiable plasma concentrations
time until which mean plasma concentrations increased ([2]; after oral administration): 15 to 30 min
bioavailability ([2]; both, domestic short hair (HsdCpb: CADS), cat, plasma, po, 1 mg/kg, absolute bioavailability after oral administration, oral 1 mg/kg): 33%
MRT ([2]; both, domestic short hair (HsdCpb: CADS), plasma, iv, 1 mg/kg): 0.789 h
AUC(0-inf) ([2]; both, domestic short hair (HsdCpb: CADS), plasma, iv, 1 mg/kg, i.v., first AUC line (r5)): 385 ng·h/mL
AUC(0-inf) ([2]; both, domestic short hair (HsdCpb: CADS), plasma, iv, 1 mg/kg, i.v., second AUC line (r7)): 376 ng·h/mL
half-life ([2]; both, domestic short hair (HsdCpb: CADS), plasma, iv, 1 mg/kg, i.v.): 2.25 h
CL/F [2, 6]: 172 mL/min/kg
Cmax [2, 6]: 138 ng/mL
MRT [2, 6]: 1.97 h
AUC(0-inf) ([2]; both, domestic short hair (HsdCpb: CADS), plasma, po, 1 mg/kg, oral, first AUC line (r5)): 150 ng·h/mL
AUC(0-inf) ([2]; both, domestic short hair (HsdCpb: CADS), plasma, po, 1 mg/kg, oral, second AUC line (r7)): 139 ng·h/mL
bioavailability ([2]; both, domestic short hair (HsdCpb: CADS), plasma, po, 1 mg/kg, absolute bioavailability after oral administration, oral 1 mg/kg): 33.6%
bioavailability ([2]; both, domestic short hair (HsdCpb: CADS), plasma, po, 1 mg/kg, absolute bioavailability, point estimate, for AUC 0→t, oral vs i.v. 1 mg/kg): 31.6%
bioavailability ([2]; both, domestic short hair (HsdCpb: CADS), plasma, po, 1 mg/kg, absolute bioavailability, point estimate, for AUC 0→∞, oral vs i.v. 1 mg/kg): 33.6%
t max ([2]; both, domestic short hair (HsdCpb: CADS), plasma, po, 1 mg/kg, t max, oral): 0.44 h
half-life ([2]; both, domestic short hair (HsdCpb: CADS), plasma, po, 1 mg/kg, oral): 2.17 h
bioavailability ([2]; domestic short hair (HsdCpb: CADS), plasma, po, 1 mg/kg, bioavailability, individual data, animal no. 101, for AUC 0→∞): 11.6%
bioavailability ([2]; domestic short hair (HsdCpb: CADS), plasma, po, 1 mg/kg, bioavailability, individual data, the other animals, for AUC 0→∞): 38.7 to 58.2%
clinical signs ([2]; entire course of the study, single oral or i.v. 1 mg/kg): No specific clinical signs
V/f or V ([2]; i.v., 1 mg/kg): 8.8 L/kg and 8.856 L/kg
t ½ ([2]; i.v., 1 mg/kg): 2.252 h
AUC 0 → ∞ ([2]; i.v., first AUC line (r5), 1 mg/kg): 384.751 ng·h/mL
tolerability ([2]; in vivo, 1 mg/kg): well tolerated
V/f or V ([2]; oral, 1 mg/kg): 20.4 L/kg and 20.453 L/kg
t max ([2]; oral, 1 mg/kg): 0.438 h
t ½ ([2]; oral, 1 mg/kg): 2.169 h
AUC 0 → ∞ ([2]; oral, first AUC line (r5), 1 mg/kg): 150.426 ng·h/mL
plasma level (Cmax±SD) [3]: about 2800±2400 ng/ml
diastolic blood pressure responses to increasing intravenous doses of Angiotensin II [4]: significantly reduced
histopathology of stomach and kidneys ([5]; day 28): no histopathological findings considered to be associated with the treatment
necropsy findings ([5]; day 28): No animal showed any specific finding
systolic blood pressure, changes from baseline vs controls ([5]; groups II (1 mg/kg) and III (3 mg/kg)): did not reveal significant differences
systolic blood pressure vs control group I ([5]; groups II (1 mg/kg) and III (3 mg/kg), single occasions after initiation of treatment): significantly lower
systolic blood pressure, course of the mean values over time ([5]; groups II and III vs group I, from day 20 onwards / towards the end of the study): tendency of a slight reduction
body weights, rectal temperature, respiratory and heart rates [5, 7]: No significant differences
clinical findings [5, 7]: No clinical findings clearly attributable to the treatment
urinalysis [5, 7]: not provide evidence of a treatment effect
physical and ECG examinations ([5]; oral once daily days 0 to 27, 1 and 3 mg/kg, all time points): did not reveal treatment-related findings
haematological and clinical chemistry parameters including differential leukocyte count ([5]; oral once daily days 0 to 27, 1 and 3 mg/kg, vs concurrent controls): No treatment-related differences
